Source: patent US9630922B2, “3-spiro-7-hydroxamic acid tetralins as HDAC inhibitors” (Forma Therapeutics, Inc., priority 2015, dated 2017)

Target: T1, HDAC6 (Homo sapiens, UniProt Q9UBN7)
T1 construct: Full length human recombinant HDAC6 protein was expressed in baculoviral system; made in house; host or cells: baculoviral system
T1 sequence (Q9UBN7 1-1215): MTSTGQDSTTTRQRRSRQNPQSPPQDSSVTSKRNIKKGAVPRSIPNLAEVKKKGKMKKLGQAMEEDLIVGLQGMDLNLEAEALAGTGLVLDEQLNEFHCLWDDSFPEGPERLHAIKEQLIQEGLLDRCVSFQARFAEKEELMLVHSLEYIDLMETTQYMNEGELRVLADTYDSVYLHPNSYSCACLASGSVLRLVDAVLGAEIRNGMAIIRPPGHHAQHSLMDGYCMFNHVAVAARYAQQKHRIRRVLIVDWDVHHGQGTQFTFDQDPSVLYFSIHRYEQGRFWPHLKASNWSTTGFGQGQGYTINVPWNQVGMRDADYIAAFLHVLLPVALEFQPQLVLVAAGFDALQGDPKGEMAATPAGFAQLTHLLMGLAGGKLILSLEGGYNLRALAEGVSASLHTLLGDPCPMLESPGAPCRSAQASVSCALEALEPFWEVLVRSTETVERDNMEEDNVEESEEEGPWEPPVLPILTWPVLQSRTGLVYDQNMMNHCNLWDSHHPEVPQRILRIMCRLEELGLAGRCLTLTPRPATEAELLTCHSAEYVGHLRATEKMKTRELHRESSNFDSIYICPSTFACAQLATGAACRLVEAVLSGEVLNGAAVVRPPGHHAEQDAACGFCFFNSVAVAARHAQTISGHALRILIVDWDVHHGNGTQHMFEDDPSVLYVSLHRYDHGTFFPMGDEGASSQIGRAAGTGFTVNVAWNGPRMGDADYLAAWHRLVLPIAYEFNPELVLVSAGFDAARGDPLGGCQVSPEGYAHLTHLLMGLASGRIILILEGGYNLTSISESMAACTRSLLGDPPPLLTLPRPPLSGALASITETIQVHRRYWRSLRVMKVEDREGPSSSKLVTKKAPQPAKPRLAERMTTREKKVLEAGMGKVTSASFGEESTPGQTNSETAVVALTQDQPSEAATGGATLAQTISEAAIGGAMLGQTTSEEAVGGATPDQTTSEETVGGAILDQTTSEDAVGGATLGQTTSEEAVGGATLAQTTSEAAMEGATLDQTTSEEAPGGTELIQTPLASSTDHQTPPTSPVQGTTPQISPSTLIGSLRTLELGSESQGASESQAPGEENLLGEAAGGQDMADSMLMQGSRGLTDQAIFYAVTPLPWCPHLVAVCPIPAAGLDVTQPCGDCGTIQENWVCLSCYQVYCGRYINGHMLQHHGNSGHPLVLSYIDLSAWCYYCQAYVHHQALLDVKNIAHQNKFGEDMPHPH
Assay: In vitro Histone Deacetylase Assay (enzymatic HDAC6 electrophoretic mobility shift assay)
Assay type: biochemical
Conditions: full length human recombinant HDAC6, 1 nM enzyme, 2 μM peptide substrate RHKK(Ac)-NH2, 25° C.; read-out: HDAC6 activity range
How it was run: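 Full-length recombinant human HDAC6 (baculovirus-expressed, 1 nM) was incubated at 25 °C with 2 μM fluorescent RHKK(Ac)-NH2 peptide in HEPES pH 7.5, KCl, BSA, Triton X-100 and 1% DMSO, then SDS-quenched. Substrate and product were separated by microfluidic mobility shift, and IC50 came from 4-parameter fits of 12-point, 3-fold dilution curves.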

SMILES	IC50 [nM]
O=C(NO)c1ccc2c(c1)CC[C@]1(CCN(Cc3ccccc3C(F)(F)F)C1=O)C2 [Compound I-39, (R)-N-hydroxy-2′-oxo-1′-(2-(trifluoromethyl)benzyl)-3,4-dihydro-1H-spiro[naphthalene-2,3′-pyrrolidine]-6-carboxamide]	≤ 100
O=C(NO)c1ccc2c(c1)CC[C@]1(CCN(Cc3ccccc3OC(F)(F)F)C1=O)C2 [Compound I-41, (R)-N-hydroxy-2′-oxo-1′-(2-(trifluoromethoxy)benzyl)-3,4-dihydro-1H-spiro[naphthalene-2,3′-pyrrolidine]-6-carboxamide]	≤ 100
O=C(NO)c1ccc2c(c1)CC[C@]1(CCN(Cc3ccc4nonc4c3)C1=O)C2 [Compound I-42, (R)-1′-(benzo[c][1,2,5]oxadiazol-5-ylmethyl)-N-hydroxy-2′-oxo-3,4-dihydro-1H-spiro[naphthalene-2,3′-pyrrolidine]-6-carboxamide]	≤ 100
O=C(NO)c1ccc2c(c1)CC[C@]1(CCN(CC(=O)N3CCOCC3)C1=O)C2 [Compound I-43, (R)-N-hydroxy-1′-(2-morpholino-2-oxoethyl)-2′-oxo-3,4-dihydro-1H-spiro[naphthalene-2,3′-pyrrolidine]-6-carboxamide]	≤ 100
CC(C)n1c(CN2CC[C@]3(CCc4cc(C(=O)NO)ccc4C3)C2=O)nc2ccccc21 [Compound I-45]	≤ 100
Cn1c(CN2CC[C@]3(CCc4cc(C(=O)NO)ccc4C3)C2=O)nc2ccccc21 [Compound I-46, (R)-N-hydroxy-1′-((1-methyl-1H-benzo[d]imidazol-2-yl)methyl)-2′-oxo-3,4-dihydro-1H-spiro[naphthalene-2,3′-pyrrolidine]-6-carboxamide]	≤ 100
C=C(C)CN1CC[C@]2(CCc3cc(C(=O)NO)ccc3C2)C1=O [Compound I-47, (R)-N-hydroxy-1′-(2-methylallyl)-2′-oxo-3,4-dihydro-1H-spiro[naphthalene-2,3′-pyrrolidine]-6-carboxamide]	≤ 100
O=C(NO)c1ccc2c(c1)CC[C@]1(CCN(Cc3cc(Cl)ccc3Cl)C1=O)C2 [Compound I-48, (R)-1′-(2,5-dichlorobenzyl)-N-hydroxy-2′-oxo-3,4-dihydro-1H-spiro[naphthalene-2,3′-pyrrolidine]-6-carboxamide]	≤ 100
O=C(NO)c1ccc2c(c1)CC[C@]1(CCN(Cc3c(Cl)cccc3Cl)C1=O)C2 [Compound I-49, (R)-1′-(2,6-dichlorobenzyl)-N-hydroxy-2′-oxo-3,4-dihydro-1H-spiro[naphthalene-2,3′-pyrrolidine]-6-carboxamide]	≤ 100
COc1ccc(CN2CC[C@]3(CCc4cc(C(=O)NO)ccc4C3)C2=O)cc1 [Compound I-56, (R)-N-hydroxy-1′-(4-methoxybenzyl)-2′-oxo-3,4-dihydro-1H-spiro[naphthalene-2,3′-pyrrolidine]-6-carboxamide]	≤ 100
O=C(NO)c1ccc2c(c1)CC[C@]1(CCN(Cc3ccccc3OC(F)F)C1=O)C2 [Compound I-59, (R)-1′-(2-(difluoromethoxy)benzyl)-N-hydroxy-2′-oxo-3,4-dihydro-1H-spiro[naphthalene-2,3′-pyrrolidine]-6-carboxamide]	≤ 100
CCCN1CC[C@@]2(CCc3cc(C(=O)NO)ccc3C2)C1=O [Compound I-60, (S)-N-hydroxy-2′-oxo-1′-propyl-3,4-dihydro-1H-spiro[naphthalene-2,3′-pyrrolidine]-6-carboxamide]	100 to 500
O=C(NO)c1ccc2c(c1)CC[C@@]1(CCN(CC3CCC3)C1=O)C2 [Compound I-61, (S)-1′-(cyclobutylmethyl)-N-hydroxy-2′-oxo-3,4-dihydro-1H-spiro[naphthalene-2,3′-pyrrolidine]-6-carboxamide]	100 to 500
CC(C)CCN1CC[C@@]2(CCc3cc(C(=O)NO)ccc3C2)C1=O [Compound I-62, (S)-N-hydroxy-1′-isopentyl-2′-oxo-3,4-dihydro-1H-spiro[naphthalene-2,3′-pyrrolidine]-6-carboxamide]	100 to 500
CC#CCN1CC[C@@]2(CCc3cc(C(=O)NO)ccc3C2)C1=O [Compound I-63, (S)-1′-(but-2-yn-1-yl)-N-hydroxy-2′-oxo-3,4-dihydro-1H-spiro[naphthalene-2,3′-pyrrolidine]-6-carboxamide]	≤ 100
COCCN1CC[C@@]2(CCc3cc(C(=O)NO)ccc3C2)C1=O [Compound I-64, (S)-N-hydroxy-1′-(2-methoxyethyl)-2′-oxo-3,4-dihydro-1H-spiro[naphthalene-2,3′-pyrrolidine]-6-carboxamide]	100 to 500

Next, values leading:

IC50 [nM]	SMILES
≤ 100	Cc1ccccc1CN1CC[C@]2(CCc3cc(C(=O)NO)ccc3C2)C1=O [Compound I-38, (R)-N-hydroxy-1′-(2-methylbenzyl)-2′-oxo-3,4-dihydro-1H-spiro[naphthalene-2,3′-pyrrolidine]-6-carboxamide]
≤ 100	O=C(NO)c1ccc2c(c1)CC[C@]1(CCN(Cc3ccccc3Cl)C1=O)C2 [Compound I-40, (R)-1′-(2-chlorobenzyl)-N-hydroxy-2′-oxo-3,4-dihydro-1H-spiro[naphthalene-2,3′-pyrrolidine]-6-carboxamide]
≤ 100	COc1ccccc1CN1CC[C@]2(CCc3cc(C(=O)NO)ccc3C2)C1=O [Compound I-44, (R)-N-hydroxy-1′-(2-methoxybenzyl)-2′-oxo-3,4-dihydro-1H-spiro[naphthalene-2,3′-pyrrolidine]-6-carboxamide]
≤ 100	O=C(NO)c1ccc2c(c1)CC[C@]1(CCN(Cc3ccccc3)C1=O)C2 [Compound I-50, (R)-1′-benzyl-N-hydroxy-2′-oxo-3,4-dihydro-1H-spiro[naphthalene-2,3′-pyrrolidine]-6-carboxamide]
≤ 100	COc1cccc(CN2CC[C@]3(CCc4cc(C(=O)NO)ccc4C3)C2=O)c1 [Compound I-51, (R)-N-hydroxy-1′-(3-methoxybenzyl)-2′-oxo-3,4-dihydro-1H-spiro[naphthalene-2,3′-pyrrolidine]-6-carboxamide]
≤ 100	O=C(NO)c1ccc2c(c1)CC[C@]1(CCN(Cc3ccccn3)C1=O)C2 [Compound I-52, (R)-N-hydroxy-2′-oxo-1′-(pyridin-2-ylmethyl)-3,4-dihydro-1H-spiro[naphthalene-2,3′-pyrrolidine]-6-carboxamide]
≤ 100	O=C(NO)c1ccc2c(c1)CC[C@]1(CCN(Cc3cccc(F)c3)C1=O)C2 [Compound I-53, (R)-1′-(3-fluorobenzyl)-N-hydroxy-2′-oxo-3,4-dihydro-1H-spiro[naphthalene-2,3′-pyrrolidine]-6-carboxamide]
≤ 100	O=C(NO)c1ccc2c(c1)CC[C@]1(CCN(Cc3cccc(Cl)c3)C1=O)C2 [Compound I-54, (R)-1′-(3-chlorobenzyl)-N-hydroxy-2′-oxo-3,4-dihydro-1H-spiro[napthalene-2,3′-pyrrolidine]-6-carboxamide]
≤ 100	O=C(NO)c1ccc2c(c1)CC[C@]1(CCN(Cc3ccc(Cl)cc3)C1=O)C2 [Compound I-55, (R)-1′-(4-chlorobenzyl)-N-hydroxy-2′-oxo-3,4-dihydro-1H-spiro[naphthalene-2,3′-pyrrolidine]-6-carboxamide]
≤ 100	O=C(NO)c1ccc2c(c1)CC[C@]1(CCN(Cc3ccccc3F)C1=O)C2 [Compound I-57, (R)-1′-(2-fluorobenzyl)-N-hydroxy-2′-oxo-3,4-dihydro-1H-spiro[naphthalene-2,3′-pyrrolidine]-6-carboxamide]
≤ 100	O=C(NO)c1ccc2c(c1)CC[C@]1(CCN(Cc3ccc4ccccc4c3)C1=O)C2 [Compound I-58, (R)-N-hydroxy-1′-(naphthalen-2-ylmethyl)-2′-oxo-3,4-dihydro-1H-spiro[naphthalene-2,3′-pyrrolidine]-6-carboxamide]
≤ 100	O=C(NO)c1ccc2c(c1)CC[C@@]1(CCN(C/C=C/c3ccccc3)C1=O)C2 [Compound I-65, (S)-1′-cinnamyl-N-hydroxy-2′-oxo-3,4-dihydro-1H-spiro[naphthalene-2,3′-pyrrolidine]-6-carboxamide]
